Our source for the IC50 values is US20240132489A1, “AROMATIC HETEROCYCLIC COMPOUND, PHARMACEUTICAL COMPOSITION, AND USE THEREOF” (GT APEIRON THERAPEUTICS LIMITED, priority 2020, published 2024).

One test concerns the target CDK2/cyclin E1 complex (Homo sapiens (Human), UniProt P24941). Briefly: In vitro enzymatic inhibitory activity test, CDK2. Type of test: biochemical. The following applies: Caliper mobility shift, 180 min at 27° C. The method, then: CDK7/CyclinH was diluted in a test buffer solution (20 mM MES PH6.75, 0.01% Tween20, 50 ug/mL BSA, 6 mM MgCl2) to obtain a corresponding enzyme solution with a 2.4× concentration. CDK2/CyclinE1 was diluted in a test buffer solution (20 mM MES PH6.75, 0.01% Tween20, 50 ug/mL BSA, 6 mM MgCl2) to obtain a corresponding enzyme solution with a 2.4× concentration. CDK9/CyclinT1 was diluted in a test buffer solution (20 mM MES PH6.75, 0.01% Tween20, 50 ug/mL BSA, 10 mM MgCl2) to obtain a corresponding enzyme solution with a 2.4× concentration. CDK12/CyclinK was diluted in a test buffer solution (80 mM MES PH6.5, 0.01% Tween20, 50 ug/mL BSA, 10 mM MgCl2) to obtain a corresponding enzyme solution with a 2.4× concentration. […] 2 ul of a test compound solution was mixed with 5 ul of enzyme solution. After incubating for 10 min, 5 ul of the mixed solution of the polypeptide substrate and ATP was added. After incubating at 27° C. for 180 min, 4 uL of EDTA with a 120 mM concentration was added to each sample to stop the reaction. […] A CDK9/cyclin TI complex (8 nM) and a “5-FAM-CDK9tide” peptide substrate (2 μM, synthetic fluorophore labeled peptide having the following sequence: 5-FAM-GSRTPMY-NH2, where 5-FAM was as defined above, and NH2 represented C-terminal amide) were used for testing the CDK9 inhibition. […] A CDK2/cyclin E1 complex (0.5 nM) and the “5-FAM-CDK7tide” (2 μM) as defined above were used for testing the CDK2 inhibition.
(§1) Electrophoretic separation was performed on Caliper EZ Reader II by means of a fluorogenic substrate and a phosphorylated product to analyze the reaction mixture. Data were calculated by using GraphPad Prism version 6.0. IC50 values were adjusted by means of a nonlinear regression model using a dose-response curve.

The next test concerns A2780 cells. Briefly: Cell bioactivity detection (CyQuant), A2780. Format: cell-based, human. The following applies: ovarian carcinoma cells A2780, 72 hours. The method, then: (§2) Trypsinization was performed on A2780 and HCC70 cells. Cell suspensions were respectively transferred to 15 mL of centrifuge tubes and centrifuged at 800 rpm for 5 min. The supernatant was discarded. Resuspension in a fresh culture medium (RPMI 1640+10% FBS) was performed. After counting, the cells were inoculated at 2000/well in a 384-well plate (50 φL of 1640+10% FBS culture medium was added to the 2nd line and the 23rd line of the 384-well plate, and 50 μL of DPBS was added to surrounding wells). Incubation in an incubator (37° C., 5% CO2) was performed overnight.
(§3) The compound was added to the well plate the next day. The compound had the highest concentration of 10 μM and was diluted at the ratio of 1:4 to form 9 concentrations. The positive compound Paclitaxel had the highest concentration of 1 μM and was diluted at the ratio of 1:3 to form 9 concentrations. The DMSO content of each well was unified to 0.2%. A cell plate was centrifuged at 800 rpm for 30 seconds. Incubation for 72 hours in an incubator (37° C., 5% CO2) was performed. On the fourth day, a Cyquant reagent (3×) was prepared according to kit instructions. Each 384-well plate was prepared in the following proportions: DPBS: 11.568 mL, CyQuant® Direct nucleic acid stain: 72 μL, CyQuant® Direct background suppressor: 360 ILL. The plates were uniformly mixed and placed for standby application at room temperature. The cell plate was taken out and placed at room temperature to be balanced for 30 min. 25 μL of Cyquant reagent (3×) was dispensed to the cells in each well of the 384-well plates by using a Multi-drop dispenser. Incubation at 37° C. for 60 or more minutes was performed. The plates were read by Acumen (Acumen was configured to have a 488 nm excitation wavelength). IC50 results were analyzed by XLFIT5 of the IDBS company.

Another test deals with HCC70 cells. Briefly: Cell bioactivity detection (CyQuant), HCC70. Format: cell-based. Conditions: human breast cancer cells HCC70, 72 hours. The method, then:
as §2, §3

For test [1], the target named is CDK12(aa686-1082)/cyclin K complex (Homo sapiens (Human), UniProt Q9NYV4). Put plainly: In vitro enzymatic inhibitory activity test, CDK12. Type of test: biochemical. The following applies: Caliper mobility shift, 180 min at 27° C. The method, then:
(§4) CDK7/CyclinH was diluted in a test buffer solution (20 mM MES PH6.75, 0.01% Tween20, 50 ug/mL BSA, 6 mM MgCl2) to obtain a corresponding enzyme solution with a 2.4× concentration. CDK2/CyclinE1 was diluted in a test buffer solution (20 mM MES PH6.75, 0.01% Tween20, 50 ug/mL BSA, 6 mM MgCl2) to obtain a corresponding enzyme solution with a 2.4× concentration. CDK9/CyclinT1 was diluted in a test buffer solution (20 mM MES PH6.75, 0.01% Tween20, 50 ug/mL BSA, 10 mM MgCl2) to obtain a corresponding enzyme solution with a 2.4× concentration. CDK12/CyclinK was diluted in a test buffer solution (80 mM MES PH6.5, 0.01% Tween20, 50 ug/mL BSA, 10 mM MgCl2) to obtain a corresponding enzyme solution with a 2.4× concentration. The compounds were dissolved in dimethyl sulfoxide (DMSO) at a concentration of 10 mM. […] 2 ul of a test compound solution was mixed with 5 ul of enzyme solution. After incubating for 10 min, 5 ul of the mixed solution of the polypeptide substrate and ATP was added. After incubating at 27° C. for 180 min, 4 uL of EDTA with a 120 mM concentration was added to each sample to stop the reaction. […] A CDK9/cyclin TI complex (8 nM) and a “5-FAM-CDK9tide” peptide substrate (2 μM, synthetic fluorophore labeled peptide having the following sequence: 5-FAM-GSRTPMY-NH2, where 5-FAM was as defined above, and NH2 represented C-terminal amide) were used for testing the CDK9 inhibition. […] A CDK2/cyclin E1 complex (0.5 nM) and the “5-FAM-CDK7tide” (2 μM) as defined above were used for testing the CDK2 inhibition.
as §1

A further test addresses CDK9/CyclinT1 (Homo sapiens (Human), UniProt P50750). Put plainly: In vitro enzymatic inhibitory activity test, CDK9. Type of test: biochemical. Conditions: Caliper mobility shift, 180 min at 27° C. The method, then: as §4, §1
The target of test [2] is CDK7/cyclin H/MAT1 complex (Homo sapiens (Human), UniProt P50613). Briefly: In vitro enzymatic inhibitory activity test, CDK7. Format: biochemical. The following applies: Caliper mobility shift, 180 min at 27° C. The method, then: as §4, §1

Each structure is given as a SMILES string. Structures can show the parent of a compound that is named as a salt. A value given as a limit tells only on which side of the number the result lay.

Sequence of CDK9/CyclinT1 (P50750 whole entry, species assumed): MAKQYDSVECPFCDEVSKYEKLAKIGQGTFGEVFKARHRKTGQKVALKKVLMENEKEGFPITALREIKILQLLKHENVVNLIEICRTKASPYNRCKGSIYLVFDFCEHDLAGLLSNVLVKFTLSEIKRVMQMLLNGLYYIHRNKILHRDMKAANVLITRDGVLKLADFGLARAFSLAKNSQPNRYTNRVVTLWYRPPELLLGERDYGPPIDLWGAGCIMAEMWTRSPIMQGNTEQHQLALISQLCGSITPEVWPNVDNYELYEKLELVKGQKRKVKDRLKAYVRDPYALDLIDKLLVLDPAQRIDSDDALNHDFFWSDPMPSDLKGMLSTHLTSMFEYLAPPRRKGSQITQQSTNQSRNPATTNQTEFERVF
Sequence of CDK9/CyclinT1 (O60563 whole entry partner, species assumed): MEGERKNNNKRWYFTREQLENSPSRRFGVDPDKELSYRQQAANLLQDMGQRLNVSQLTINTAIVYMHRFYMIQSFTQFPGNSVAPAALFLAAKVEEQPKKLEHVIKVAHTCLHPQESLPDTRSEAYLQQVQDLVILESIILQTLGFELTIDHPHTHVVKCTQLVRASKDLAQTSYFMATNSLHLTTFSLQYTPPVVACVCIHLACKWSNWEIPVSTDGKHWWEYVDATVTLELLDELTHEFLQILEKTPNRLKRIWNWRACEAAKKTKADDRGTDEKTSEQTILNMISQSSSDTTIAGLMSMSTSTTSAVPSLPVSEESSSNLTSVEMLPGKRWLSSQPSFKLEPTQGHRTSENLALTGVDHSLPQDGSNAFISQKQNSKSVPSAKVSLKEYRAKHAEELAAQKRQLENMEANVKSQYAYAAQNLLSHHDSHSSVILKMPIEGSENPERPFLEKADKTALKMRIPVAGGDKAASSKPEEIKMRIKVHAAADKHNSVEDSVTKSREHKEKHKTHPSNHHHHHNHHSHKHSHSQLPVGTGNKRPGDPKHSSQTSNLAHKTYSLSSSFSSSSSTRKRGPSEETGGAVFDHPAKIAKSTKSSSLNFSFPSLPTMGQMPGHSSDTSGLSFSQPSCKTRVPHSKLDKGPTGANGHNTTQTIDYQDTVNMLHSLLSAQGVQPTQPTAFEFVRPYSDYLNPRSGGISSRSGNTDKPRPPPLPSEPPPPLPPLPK
Sequence of CDK12(aa686-1082)/cyclin K complex (Q9NYV4 686-1082, species assumed): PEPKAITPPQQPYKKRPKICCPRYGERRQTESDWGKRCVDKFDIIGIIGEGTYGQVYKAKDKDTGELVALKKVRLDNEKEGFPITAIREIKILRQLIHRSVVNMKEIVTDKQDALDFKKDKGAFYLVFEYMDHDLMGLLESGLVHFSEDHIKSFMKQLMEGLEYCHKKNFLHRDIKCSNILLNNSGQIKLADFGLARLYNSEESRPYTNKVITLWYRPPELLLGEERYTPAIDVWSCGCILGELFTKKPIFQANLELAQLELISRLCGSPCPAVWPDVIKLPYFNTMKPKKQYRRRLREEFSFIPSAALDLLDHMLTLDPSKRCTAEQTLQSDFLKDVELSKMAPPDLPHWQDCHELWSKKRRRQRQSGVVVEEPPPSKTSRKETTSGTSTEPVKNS
Sequence of CDK12(aa686-1082)/cyclin K complex (O75909 whole entry partner, species assumed, the tested form may be a part): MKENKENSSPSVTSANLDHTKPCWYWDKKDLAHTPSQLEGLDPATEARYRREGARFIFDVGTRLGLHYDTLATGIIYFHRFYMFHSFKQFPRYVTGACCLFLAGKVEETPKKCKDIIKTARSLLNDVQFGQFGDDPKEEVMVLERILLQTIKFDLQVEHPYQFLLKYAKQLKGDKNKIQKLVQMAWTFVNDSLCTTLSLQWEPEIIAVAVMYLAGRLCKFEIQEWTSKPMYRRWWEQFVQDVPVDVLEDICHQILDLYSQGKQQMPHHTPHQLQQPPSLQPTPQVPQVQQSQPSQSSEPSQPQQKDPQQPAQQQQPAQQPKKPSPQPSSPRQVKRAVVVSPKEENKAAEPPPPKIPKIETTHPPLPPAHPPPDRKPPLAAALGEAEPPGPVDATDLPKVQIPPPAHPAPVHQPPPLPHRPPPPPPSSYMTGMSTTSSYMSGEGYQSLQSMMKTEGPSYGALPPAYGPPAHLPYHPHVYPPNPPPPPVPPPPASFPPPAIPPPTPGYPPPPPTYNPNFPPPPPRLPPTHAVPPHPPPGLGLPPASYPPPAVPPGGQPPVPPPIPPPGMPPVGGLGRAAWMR
Sequence of CDK7/cyclin H/MAT1 complex (P50613 whole entry, species assumed): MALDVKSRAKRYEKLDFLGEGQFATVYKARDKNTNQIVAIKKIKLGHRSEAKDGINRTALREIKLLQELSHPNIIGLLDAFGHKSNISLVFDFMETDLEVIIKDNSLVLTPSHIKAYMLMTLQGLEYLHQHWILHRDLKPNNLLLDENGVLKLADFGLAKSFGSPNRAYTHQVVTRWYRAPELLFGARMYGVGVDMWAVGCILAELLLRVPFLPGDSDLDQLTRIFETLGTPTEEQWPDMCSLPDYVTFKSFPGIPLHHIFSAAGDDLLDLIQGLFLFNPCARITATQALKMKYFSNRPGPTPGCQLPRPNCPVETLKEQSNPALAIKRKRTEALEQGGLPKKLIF
Sequence of CDK7/cyclin H/MAT1 complex (P51946 whole entry partner, species assumed): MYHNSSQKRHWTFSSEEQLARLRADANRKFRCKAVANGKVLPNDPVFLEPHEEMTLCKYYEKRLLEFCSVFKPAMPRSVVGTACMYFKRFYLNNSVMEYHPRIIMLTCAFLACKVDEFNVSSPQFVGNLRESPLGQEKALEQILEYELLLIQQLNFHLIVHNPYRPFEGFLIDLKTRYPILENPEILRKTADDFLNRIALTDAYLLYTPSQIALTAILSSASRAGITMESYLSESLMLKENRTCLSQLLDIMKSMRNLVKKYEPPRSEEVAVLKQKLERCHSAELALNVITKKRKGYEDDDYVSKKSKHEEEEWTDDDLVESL
Sequence of CDK7/cyclin H/MAT1 complex (P51948 whole entry partner, species assumed): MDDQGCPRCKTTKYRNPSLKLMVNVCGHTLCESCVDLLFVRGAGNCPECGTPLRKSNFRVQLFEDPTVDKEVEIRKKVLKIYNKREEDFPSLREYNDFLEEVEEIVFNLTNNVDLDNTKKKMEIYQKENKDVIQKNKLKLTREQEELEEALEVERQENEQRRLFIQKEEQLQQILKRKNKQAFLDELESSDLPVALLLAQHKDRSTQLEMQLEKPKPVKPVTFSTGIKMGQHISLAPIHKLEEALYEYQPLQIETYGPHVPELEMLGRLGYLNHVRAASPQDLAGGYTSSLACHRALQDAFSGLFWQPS

On to `FC(F)(F)c1cnc(N[C@H]2CCCNC2)nc1-c1c[nH]c2nc(C3CCOC3)ccc12` (single isomer, unassigned) [Compound 107], for which the IC50 stood at 1510 nM on CDK2/cyclin E1 complex; 6.27 nM with A2780 cells (Homo sapiens, A2780, 72 h); 6.77 nM in the test with HCC70 cells (Homo sapiens, HCC70, 72 h); 567 nM in test [1]; 1440 nM on CDK9/CyclinT1; 6.4 nM in test [2].
In the case of `FC(F)(F)c1cnc(N[C@H]2CCCNC2)nc1-c1c[nH]c2nc(C3CCOC3)ccc12` (single isomer, unassigned) [Compound 108], the IC50 was found to be 947 nM at CDK2/cyclin E1 complex; 3.9 nM in the test on A2780 cells; 3.8 nM in the test with HCC70 cells; 512 nM in test [1]; 1410 nM at CDK9/CyclinT1; 4.36 nM in test [2].
For `FC(F)(F)c1cnc(N[C@H]2CCCNC2)nc1-c1c[nH]c2nc(N3CCOCC3)ccc12` [Compound 1, (S)-4-(6-morpholinyl-1H-pyrrolo[2,3-b]pyridin-3-yl)-N-(piperidin-3-yl)-5-(trifluoromethyl)pyrimidine-2-amine], the half-inhibitory concentration (IC50) at CDK2/cyclin E1 complex was found to be 3020 nM; in the test on A2780 cells (Homo sapiens, A2780, 72 h) it was 14 nM; in the test on HCC70 cells (Homo sapiens, HCC70, 72 h), 14 nM; in test [1], 1460 nM; on CDK9/CyclinT1 it was 1180 nM; in test [2], 13.4 nM.
Turning to `FC(F)(F)c1cnc(N[C@H]2CCCNC2)nc1-c1c[nH]c2nc(N3C[C@H]4C[C@@H]3CO4)ccc12` [Compound 2, 4-(6-((1R,4R)-2-oxa-5-azabicyclo[2.2.1]heptan-5-yl)-1H-pyrrolo[2,3-b]pyridin-3-yl)-N—((S)-piperidin-3-yl)-5-(trifluoromethyl)pyrimidine-2-amine], the 50% inhibitory concentration (IC50) at CDK2/cyclin E1 complex came out at 4380 nM; in the test on A2780 cells (Homo sapiens, A2780, 72 h) it was 16 nM; in the test with HCC70 cells (Homo sapiens, HCC70, 72 h), 15 nM; in test [1] it was 1840 nM; at CDK9/CyclinT1, 1040 nM; in test [2] it was 10.4 nM.
As to `OC1CCN(c2ccc3c(-c4nc(N[C@H]5CCCNC5)ncc4C(F)(F)F)c[nH]c3n2)CC1` [Compound 3, (S)-1-(3-(2-(piperidin-3-ylamino)-5-(trifluoromethyl)pyrimidin-4-yl)-1H-pyrrolo[2,3-b]pyridin-6-yl)piperidin-4-ol], the IC50 was 2680 nM on CDK2/cyclin E1 complex; 12 nM in the test with A2780 cells (Homo sapiens, A2780, 72 h); 7.9 nM in the test with HCC70 cells (Homo sapiens, HCC70, 72 h); 679 nM in test [1]; 722 nM at CDK9/CyclinT1; 17.4 nM in test [2].
Regarding `OCC1CCN(c2ccc3c(-c4nc(N[C@H]5CCCNC5)ncc4C(F)(F)F)c[nH]c3n2)CC1` [Compound 4], the IC50 at CDK2/cyclin E1 complex is 1480 nM; with A2780 cells (Homo sapiens, A2780, 72 h), 8 nM; in the test on HCC70 cells (Homo sapiens, HCC70, 72 h), 6.1 nM; in test [1], 733 nM; at CDK9/CyclinT1, 682 nM; in test [2], 17.4 nM.
For `FC(F)(F)c1cnc(N[C@H]2CCCNC2)nc1-c1c[nH]c2nc(N3CC4COCC4C3)ccc12` (stereo partly drawn) [Compound 5, N—((S)-piperidin-3-yl)-4-(6-(tetrahydro-1H-furan[3,4-c]pyrrol-5(3H)-yl)-1H-pyrrolo[2,3-b]pyridin-3-yl)-5-(trifluoromethyl)pyrimidine-2-amine], the IC50 was 2250 nM at CDK2/cyclin E1 complex; 17 nM in the test on A2780 cells (Homo sapiens, A2780, 72 h); 19 nM with HCC70 cells (Homo sapiens, HCC70, 72 h); 1020 nM in test [1]; 907 nM at CDK9/CyclinT1; 12.1 nM in test [2].
Regarding `CC1(O)CCN(c2ccc3c(-c4nc(N[C@H]5CCCNC5)ncc4C(F)(F)F)c[nH]c3n2)C1` (stereo partly drawn) [Compound 6, 3-methyl-1-(3-(2-(((S)-piperidin-3-yl)amino)-5-(trifluoromethyl)pyrimidin-4-yl)-1H-pyrrolo[2,3-b]pyridin-6-yl)pyrrolidin-3-ol], the concentration for half-maximal inhibition (IC50) at CDK2/cyclin E1 complex worked out at 4380 nM; with A2780 cells (Homo sapiens, A2780, 72 h), 22 nM; in the test on HCC70 cells (Homo sapiens, HCC70, 72 h), 6.7 nM; in test [1] it was 1840 nM; at CDK9/CyclinT1, 1040 nM; in test [2], 10.4 nM.
With `FC(F)(F)c1cnc(N[C@H]2CCCNC2)nc1-c1c[nH]c2nc(N3CCCC4(CCOC4)C3)ccc12` (stereo partly drawn) [Compound 7, 4-(6-(2-oxa-7-azaspiro[4.5]decan-7-yl)-1H-pyrrolo[2,3-b]pyridin-3-yl)-N—((S)-piperidin-3-yl)-5-(trifluoromethyl)pyrimidine-2-amine], the IC50 on CDK2/cyclin E1 complex turned out to be 4500 nM; in the test on A2780 cells (Homo sapiens, A2780, 72 h), 21.9 nM; in the test with HCC70 cells (Homo sapiens, HCC70, 72 h), 28 nM; in test [1], 2060 nM; on CDK9/CyclinT1, 3250 nM; in test [2], 24.3 nM.
For the molecule `FC(F)(F)c1cnc(N[C@@H]2[C@@H]3CC[C@H]2NC3)nc1-c1c[nH]c2nc(N3CCOCC3)ccc12` [Compound 43, (1R,4R,7R)—N-(4-(6-morpholinyl-1H-pyrrol[2,3-b]pyridin-3-yl)-5-(trifluoromethyl)pyrimidin-2-yl)-2-azabicyclo[2.2.1]heptan-7-amine formate], the half-inhibitory concentration (IC50) at CDK2/cyclin E1 complex was above 10000 nM; in the test with HCC70 cells (Homo sapiens, HCC70, 72 h) it was 6070 nM; in test [1], above 10000 nM; at CDK9/CyclinT1 it was above 10000 nM; in test [2], 82.9 nM.
In the case of `C[C@H]1CC[C@H](Nc2ncc(C(F)(F)F)c(-c3c[nH]c4nc(N5CCOC[C@@H]5C)ccc34)n2)CN1` [Compound 69, 4-(6-((S)-3-methylmorpholine)-1H-pyrrol[2,3-b]pyridin-3-yl)-N-((3S,6S)-6-methylpiperidin-3-yl)-5-(trifluoromethyl)pyrimidine-2-amine], the 50% inhibitory concentration (IC50) on CDK2/cyclin E1 complex is 47100 nM; with HCC70 cells it was 642 nM; in test [1], 49100 nM; on CDK9/CyclinT1, above 50000 nM; in test [2] it was 28.4 nM.
With `FC(F)(F)c1cnc(N[C@@H]2CCCNC2)nc1-c1c[nH]c2nc(C3CCCCO3)ccc12` (stereo partly drawn) [Compound 112], the IC50 in test [2] was found to be 5.82 nM.
`FC(F)(F)c1cnc(N[C@H]2CCCNC2)nc1-c1c[nH]c2nc(C3CCCCO3)ccc12` (stereo partly drawn) [Compound 113]: in test [2], the 50% inhibitory concentration (IC50) amounted to 4.76 nM.

What is called IC50 is the concentration that inhibits the measured activity by half.
